# According to US20230027066A1 (Urovant Sciences GmbH, priority 2019, published 2023):
# Where two headings read alike, the source gives them in different places.
# How the values were obtained:
# [1] = tested on: men and women with overactive bladder; test: extension study, OAB-q LF coping subscore at Week 52; type: in vivo, human; details: for OAB-q LF Coping Subscore, Week 52 Mean: Full Analysis Set Extension; for OAB-q LF Coping Subscore, Change from Baseline Mean at Week 52: baseline from parent study
# [2] = 40-week extension study (52 weeks), adverse events
# Text: Approximately 500 men and women with overactive bladder who completed 12 weeks in the parent study were permitted to enroll, at approximately 110 study sites in the U.S.
# Secondary endpoints were evaluation of CFB at Week 52 in average number of micturitions, Urge Urinary Incontinence (UUI) episodes, urgency episodes, and total urinary incontinence episodes. All CFB calculations used the parent study Baseline value.
# [3] = dose-Cmax and dose-AUC models / log-log regression from Phase 1 data
# Protocol: In order to contextualize PK parameters of a 75 mg dose, dose-Cmax and dose-AUC models were created using data from Phase 1 studies.
# [4] = Phase 3 study (75 mg), post-void residual urine volume (PVR); type: in vivo, human
# Text: The risk of acute urinary retention or morbidities related to an increase in Post-Void Residual (PVR) is a concern with antimuscarinic therapy that promotes smooth muscle relaxation by inhibiting acetylcholine-induced smooth muscle contraction. If, during contraction, the bladder cannot generate enough pressure to overcome the outlet resistance in the urethra, either because of poor detrusor contractility or profound obstruction (most commonly from BPH), acute urinary retention or incomplete emptying of the bladder may result.
# The volume of urine that remains in the bladder after voiding (PVR) is an objective measurement that may serve as a proxy for impaired ability to void.
# PVR were performed via ultrasound at the visits indicated in the Schedule of Activities.
# [5] = drug interaction study of vibegron and rifampin, pharmacokinetics; type: in vivo, human
# [6] = vibegron exposure in special populations (renal impairment, CYP3A/P-gp inhibitor, elderly, females); type: in vivo, human
# [7] = Text: A placebo group was included in the main study, and a group that received tolterodine monotherapy was included in the main study and in the extension.
# [8] = thorough QT study, single doses of 200 and 400 mg, healthy volunteers; type: in vivo, human
# [9] = estimated 75 mg vs 200 mg single dose
# [10] = estimated 75 mg vs 400 mg single dose
# [11] = Males with medical history of BPH
# [12] = vibegron 75 mg single dose + rifampin 600 mg QD
# [13] = vibegron 75 mg single dose alone
compound,measurement,setting,value
"O=C(Nc1ccc(C[C@@H]2CC[C@H]([C@H](O)c3ccccc3)N2)cc1)[C@@H]1CCc2nccc(=O)n21 [Vibegron, (6S)-N-[4-[[(2S,5R)−5-[(R)-hydroxy(phenyl)methyl]pyrrolidin−2-yl]methyl]phenyl]−4-oxo−7,8-dihydro−6H-pyrrolo[1,2-a]pyrimidine−6-carboxamide]","OAB-q LF Coping Subscore, Week 52 Mean",[1]; 40-Week treatment group,86.3
same,"OAB-q LF Coping Subscore, Change from Baseline Mean at Week 52",[1]; 40-Week treatment group,28.3
same,"OAB-q LF Coping Subscore, Week 52 Mean",[1]; 52-Week treatment group,83.6
same,"OAB-q LF Coping Subscore, Change from Baseline Mean at Week 52",[1]; 52-Week treatment group,27.1
same,Discontinued the study: Death,[2]; 40-Weeks arm,1 (1.1) n (%)
same,Discontinued the study: Death,[2]; 52-Weeks arm,0 n (%)
same,SAEs resulting in death (not considered related by Investigator or Sponsor),[2]; Overall groups,1 (0.4) n (%)
same,Discontinued the study: Death,"[2]; Overall groups, Randomized Set Extension",1 (0.4) n (%)
same,Discontinued the study: Adverse Event,"[2]; both, human, in vivo",4 (1.5) n (%)
same,Patients with at least one treatment-emergent adverse event,"[2]; both, human, in vivo",171 (62.6) n (%)
same,Patients with at least one treatment-emergent serious AE,"[2]; both, human, in vivo",9 (3.3) n (%)
same,SAEs considered treatment-related by the investigator,"[2]; both, human, in vivo",1 (0.4) n (%)
same,SAEs: Hospitalization,"[2]; both, human, in vivo",7 (2.6) n (%)
same,SAEs: Other serious criteria,"[2]; both, human, in vivo",1 (0.4) n (%)
same,Discontinued the study: Adverse Event,"[2]; both, human, in vivo, 40 weeks",1 (1.1) n (%)
same,AE leading to discontinuation of study drug: Acute prerenal failure,"[2]; both, human, in vivo, 52 weeks",0 n (%)
same,AE leading to discontinuation of study drug: Amnesia,"[2]; both, human, in vivo, 52 weeks",1 (0.4) n (%)
same,AE leading to discontinuation of study drug: Any,"[2]; both, human, in vivo, 52 weeks",4 (1.5) n (%)
same,AE leading to discontinuation of study drug: Aortic stenosis,"[2]; both, human, in vivo, 52 weeks",0 n (%)
same,AE leading to discontinuation of study drug: Atrial fibrillation,"[2]; both, human, in vivo, 52 weeks",0 n (%)
same,AE leading to discontinuation of study drug: Blood creatinine increased,"[2]; both, human, in vivo, 52 weeks",1 (0.4) n (%)
same,AE leading to discontinuation of study drug: Blood urea increased,"[2]; both, human, in vivo, 52 weeks",1 (0.4) n (%)
same,AE leading to discontinuation of study drug: Cardiac failure,"[2]; both, human, in vivo, 52 weeks",0 n (%)
same,AE leading to discontinuation of study drug: Cardiomyopathy,"[2]; both, human, in vivo, 52 weeks",0 n (%)
same,AE leading to discontinuation of study drug: Chronic kidney disease,"[2]; both, human, in vivo, 52 weeks",0 n (%)
same,AE leading to discontinuation of study drug: Constipation,"[2]; both, human, in vivo, 52 weeks",1 (0.4) n (%)
same,AE leading to discontinuation of study drug: Diarrhea,"[2]; both, human, in vivo, 52 weeks",1 (0.4) n (%)
same,AE leading to discontinuation of study drug: Dizziness,"[2]; both, human, in vivo, 52 weeks",0 n (%)
same,AE leading to discontinuation of study drug: Dry eye,"[2]; both, human, in vivo, 52 weeks",0 n (%)
same,AE leading to discontinuation of study drug: Dyspnoea,"[2]; both, human, in vivo, 52 weeks",0 n (%)
same,AE leading to discontinuation of study drug: Haematuria,"[2]; both, human, in vivo, 52 weeks",0 n (%)
same,AE leading to discontinuation of study drug: Headache,"[2]; both, human, in vivo, 52 weeks",0 n (%)
same,AE leading to discontinuation of study drug: Intervertebral disc degeneration,"[2]; both, human, in vivo, 52 weeks",0 n (%)
same,AE leading to discontinuation of study drug: Mitral valve incompetence,"[2]; both, human, in vivo, 52 weeks",0 n (%)
same,AE leading to discontinuation of study drug: Osteoarthritis,"[2]; both, human, in vivo, 52 weeks",0 n (%)
same,AE leading to discontinuation of study drug: Pulmonary embolism,"[2]; both, human, in vivo, 52 weeks",0 n (%)
same,AE leading to discontinuation of study drug: Sinus tachycardia,"[2]; both, human, in vivo, 52 weeks",0 n (%)
same,AE leading to discontinuation of study drug: Tricuspid valve incompetence,"[2]; both, human, in vivo, 52 weeks",0 n (%)
same,AE: Anaemia,"[2]; both, human, in vivo, 52 weeks",7 (2.6) n (%)
same,AE: Atrial fibrillation,"[2]; both, human, in vivo, 52 weeks",0 n (%)
same,AE: Back pain,"[2]; both, human, in vivo, 52 weeks",6 (2.2) n (%)
same,AE: Blood pressure increased,"[2]; both, human, in vivo, 52 weeks",2 (0.7) n (%)
same,AE: Bronchitis,"[2]; both, human, in vivo, 52 weeks",8 (2.9) n (%)
same,AE: Constipation,"[2]; both, human, in vivo, 52 weeks",10 (3.7) n (%)
same,AE: Diarrhea,"[2]; both, human, in vivo, 52 weeks",13 (4.8) n (%)
same,AE: Dizziness,"[2]; both, human, in vivo, 52 weeks",4 (1.5) n (%)
same,AE: Dry mouth,"[2]; both, human, in vivo, 52 weeks",5 (1.8) n (%)
same,AE: Fatigue,"[2]; both, human, in vivo, 52 weeks",3 (1.1) n (%)
same,AE: Headache,"[2]; both, human, in vivo, 52 weeks",15 (5.5) n (%)
same,AE: Hyperglycemia,"[2]; both, human, in vivo, 52 weeks",7 (2.6) n (%)
same,AE: Hypertension,"[2]; both, human, in vivo, 52 weeks",24 (8.8) n (%)
same,AE: Hypotension,"[2]; both, human, in vivo, 52 weeks",0 n (%)
same,AE: Musculoskeletal pain,"[2]; both, human, in vivo, 52 weeks",6 (2.2) n (%)
same,AE: Nasopharyngitis,"[2]; both, human, in vivo, 52 weeks",13 (4.8) n (%)
same,AE: Nausea,"[2]; both, human, in vivo, 52 weeks",10 (3.7) n (%)
same,AE: Residual urine volume increased,"[2]; both, human, in vivo, 52 weeks",7 (2.6) n (%)
same,AE: Syncope,"[2]; both, human, in vivo, 52 weeks",0 n (%)
same,AE: Tachycardia (Sinus Tachycardia),"[2]; both, human, in vivo, 52 weeks",1 (0.4) n (%)
same,AE: Upper respiratory tract infection,"[2]; both, human, in vivo, 52 weeks",10 (3.7) n (%)
same,AE: Urinary retention,"[2]; both, human, in vivo, 52 weeks",3 (1.1) n (%)
same,AE: Urinary tract infection,"[2]; both, human, in vivo, 52 weeks",18 (6.6) n (%)
same,Discontinued the study: Adverse Event,"[2]; both, human, in vivo, 52 weeks",3 (1.6) n (%)
same,AUC of 75 mg dose lower than 200 mg single dose,[3]; [9],~2 fold
same,Cmax of 75 mg dose lower than 200 mg single dose,[3]; [9],approximately 3.3 fold
same,AUC of 75 mg dose lower than 400 mg single dose,[3]; [10],~6 fold
same,Cmax of 75 mg dose lower than 400 mg single dose,[3]; [10],~9.2 fold
same,increase in Cmax with increase in dose from 50 to 100 mg,[3]; vibegron 50 vs 100 mg,~3 fold
same,reduction in Cmax with a 25% reduction in dose (100 mg to 75 mg),[3]; vibegron 75 vs 100 mg,~40%
same,"PVR category at Week 12 <100 mL, patients",[4]; Females,96.8%
same,"PVR category at Week 12 ≥100 mL to <200 mL, patients",[4]; Females,3.0%
same,"PVR category at Week 12 ≥200 mL to <350 mL, patients",[4]; Females,0.2%
same,"PVR category at Week 12 ≥350 mL, patients",[4]; Females,0
same,"PVR, Mean Change from Baseline at Week 12 (SD)",[4]; Females,0.1 (36.19) mL
same,"PVR category at Week 12 <100 mL, patients",[4]; Males,89.7%
same,"PVR category at Week 12 ≥100 mL to <200 mL, patients",[4]; Males,7.7%
same,"PVR category at Week 12 ≥200 mL to <350 mL, patients",[4]; Males,2.6%
same,"PVR category at Week 12 ≥350 mL, patients",[4]; Males,0
same,"PVR, Mean Change from Baseline at Week 12 (SD)",[4]; Males,2.2 (48.45) mL
same,"PVR category at Week 12 <100 mL, patients",[4]; [11],96.6%
same,"PVR category at Week 12 ≥100 mL to <200 mL, patients",[4]; [11],0%
same,"PVR category at Week 12 ≥200 mL to <350 mL, patients",[4]; [11],3.4%
same,"PVR category at Week 12 ≥350 mL, patients",[4]; [11],0
same,"PVR, Mean Change from Baseline at Week 12 (SD)",[4]; [11],−3.4 (42.45) mL
same,"PVR category at Week 12 <100 mL, patients",[4]; all patients,89.9%
same,"PVR category at Week 12 ≥100 mL to <200 mL, patients",[4]; all patients,3.5%
same,"PVR category at Week 12 ≥200 mL to <350 mL, patients",[4]; all patients,0.6%
same,"PVR category at Week 12 ≥350 mL, patients",[4]; all patients,0
same,"PVR, Mean Change from Baseline at Week 12 (SD)",[4]; all patients,0.4 (38.27) mL
same,AUC(0-t),"[5]; both sexes, human, in vivo, 75 mg, read-out: AUC0-t, geometric mean (% CV)",1160 ng·h/mL
same,Cmax,"[5]; both sexes, human, in vivo, 75 mg, read-out: Cmax, geometric mean (% CV)",82.3 ng/mL
same,AUC(0-inf),"[5]; both sexes, human, in vivo, oral, 75 mg, read-out: AUC0-∞, geometric mean (% CV)",1310 ng·h/mL
same,half-life,"[5]; both sexes, human, in vivo, oral, 75 mg, read-out: t1/2, geometric mean (% CV) (converted)",84 h
same,"CL/F, geometric mean (% CV)",[5]; [12],57.3 (30.1) L/hr
same,"V/F, geometric mean (% CV)",[5]; [12],6140 (47.0) L
same,"CL/F, geometric mean (% CV)",[5]; [13],57.2 (39.7) L/hr
same,"V/F, geometric mean (% CV)",[5]; [13],6930 (48.6) L
same,higher Cmax in elderly and females than healthy young males,[6]; elderly and females,50-70%
same,mean increase in AUC in subjects with moderate renal impairment vs normal renal function,[6]; moderate renal impairment,1.6 fold
same,frequency of injuries,"[7]; human, in vivo",0.9%
same,Accidental overdose,[7]; vibegron 3 mg,3 (2.1) n (%)
same,Accidental overdose,[7]; vibegron 15 mg,6 (4.5) n (%)
same,Accidental overdose,[7]; vibegron 50 mg,4 (2.7) n (%)
same,Accidental overdose,[7]; vibegron 100 mg,11 (4.2) n (%)
same,effect on QTc or blood pressure in thorough QT study,"[8]; human, in vivo",no clinically meaningful effect on QTc or blood pressure
same,"AUC, mean ± SD",[8]; vibegron 200 mg single dose,2430 ± 974 ng·h/mL
same,Maximum mean placebo corrected change from baseline RR interval,[8]; vibegron 200 mg single dose,-84.36 ms
same,Maximum mean placebo corrected change from baseline diastolic BP,[8]; vibegron 200 mg single dose,2.42 mmHg
same,Maximum mean placebo corrected change from baseline systolic BP,[8]; vibegron 200 mg single dose,2.20 mmHg
same,"AUC, mean ± SD",[8]; vibegron 400 mg single dose,6800 ± 2300 ng·h/mL
same,Maximum mean placebo corrected change from baseline RR interval,[8]; vibegron 400 mg single dose,-162.45 ms
same,Maximum mean placebo corrected change from baseline diastolic BP,[8]; vibegron 400 mg single dose,3.99 mmHg
same,Maximum mean placebo corrected change from baseline systolic BP,[8]; vibegron 400 mg single dose,3.97 mmHg
